According to US20240262842A1, “SMALL MOLECULE INHIBITORS OF KRAS G12C MUTANT” (Merck Sharp & Dohme LLC, priority 2021, published 2024):
Read-outs that look alike come from different tables or passages of the source.

How the values were obtained:
MIA PaCa-2 cells = experiment: Growth inhibition activity on KRAS-G12C mutant cell line (CellTiter-Glo 3D); assay type: cell-based, human; settings: MIA PaCa-2, 3-day culture with compound
Procedure: MIA PaCa-2 cells (given by Sumitomo Dainippon Pharma Co., Ltd.), which are a KRAS-G12C mutant human pancreas cancer cell line, were suspended in a 10% fetal bovine serum-containing RPMI1640 medium (manufactured by Fujifilm Wako Pure Chemical Corporation). The cell suspension was seeded into each well of a 384-well U bottom microplate and cultured in an incubator containing 5% CO2 gas at 37° C. for 1 day. The compounds obtained in the “Preparation of Compounds” section were used as test compounds and were dissolved in DMSO, respectively, and each test compound was diluted with DMSO to give a concentration 500 times the final concentration. The resultant solution of the test compound in DMSO was diluted with the medium used for suspending cells and added to each well of the cell-culture plate to give a DMSO final concentration of 0.2%, followed by culture in an incubator containing 5% CO2 gas at 37° C. for another 3 days. The cell count after 3-day culture in the presence of the test compound was measured using CellTiter-Glo 3D Reagent (manufactured by Promega Corporation). All wells were added with CellTiter-Glo 3D Reagent and mixed for 10 minutes. 30 minutes after mixing, luminescence was measured by a plate reader. The growth inhibition rate was calculated from the following equation, and the concentration of the test compound at which 50% inhibition was achieved (IC50 (nM)) was determined.
[formula] • T: the emission intensity in a well into which a test compound was added. • C: the emission intensity in a well into which a test compound was not added.

[1] = target: T1, interaction between GMPPNP-bound recombinant K-Ras4B G12C mutant protein and cRAF RAS-binding domain (cRAF-RBD) (Homo sapiens, UniProt P01116, G12C); experiment: Inhibitory activity on interaction between KRAS G12C and cRAF (Alpha technology)
T1 construct: His-tag (N)
Procedure: Interaction between recombinant K-Ras4B G12C mutant protein (amino acids 1-169, SEQ ID NO:2) and cRAF RAS-binding domain (cRAF-RBD, amino acids 50-132, Jena Biosciences GmbH) was measured using Alpha technology (PerkinElmer Inc.).
Recombinant KRAS G12C protein with an N-terminal His-tag was expressed in E. coli and purified by affinity chromatography. To prepare GTP-bound form and GDP-bound form of KRAS G12C protein, 50 μM KRAS G12C protein was incubated with 1 mM GMPPNP (Guanosine-5′-[(β,γ)-imido]triphosphate, Tetralithium salt) (Jena Bioscience GmbH) and 1 mM GDP, respectively, in a loading buffer (20 mM Tris-HCl (pH 7.5), 50 mM NaCl, 1 mM DTT and 2.5 mM EDTA) for 1 hour on ice. After the incubation, MgCl2 was added to a final concentration of 10 mM, followed by incubation at room temperature for 30 minutes. The mixture was allowed to pass through a NAP-5 column to remove free nucleotides and purified, and the resultant nucleotide-bound KRAS G12C protein was used for compound evaluation.
For the measurement of the inhibitory activity of compounds on interaction between KRAS G12C and cRAF-RBD, GMPPNP-bound KRAS G12C protein was incubated with various concentrations of compound in a reaction buffer (20 mM Tris-HCl (pH 7.5), 100 mM NaCl, 1 mM MgCl2, 1 mM TCEP, 0.1% Tween 20) at 25° C. for 1 hour. After the incubation, recombinant cRAF-RBD and Alpha detection reagents were added and incubated at room temperature for 1.5 hours for binding. Interaction of KRAS G12C and cRAF-RBD was monitored by measuring Alpha signal. Inhibition % was calculated using the signal from the reaction without test compound (DMSO control) as 0% inhibition and the signal from the reaction using GDP-bound KRAS G12C in place of GMPPNP-bound KRAS G12C as 100% inhibition. IC50 values were calculated from dose titration curve using curve fitting by XLfit software (IDBS).

[2] = IC50, GMPPNP-bound KRAS G12C incubated with compound 25° C. 1 hour, Table 2
[3] = Homo sapiens, MIA PaCa-2, 72 h, Table 3-1
[4] = GMPPNP-bound KRAS G12C incubated with compound 25° C. 1 hour, Table 2-1, read-out: IC50
[5] = GMPPNP-bound KRAS G12C incubated with compound 25° C. 1 hour, Table 2, read-out: IC50
[6] = IC50, GMPPNP-bound KRAS G12C incubated with compound 25° C. 1 hour, Table 2-1

T1 sequence (P01116 with tags, fused parts or gaps isoform P01116-2 G12C): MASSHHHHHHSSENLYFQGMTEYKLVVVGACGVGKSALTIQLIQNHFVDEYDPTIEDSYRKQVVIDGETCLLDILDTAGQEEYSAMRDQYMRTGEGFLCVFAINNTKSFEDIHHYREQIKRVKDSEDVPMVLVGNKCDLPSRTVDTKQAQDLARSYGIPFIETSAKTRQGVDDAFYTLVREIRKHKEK

Structure (SMILES)	IC50 (MIA PaCa-2 cells; [3])	IC50 [1, 4]	further results
CO[C@H]1CC[C@H](NC/C=C/C(=O)Nc2c(F)cc(C(=O)c3cn4c5c(cccc35)-c3c(C)cc5c(nc(C)n5C)c3OCCC4)cc2F)CC1 (single isomer, unassigned) [Example 15-2, (E)-N-(2,6-difluoro-4-(6,8,9-trimethyl-13,14-dihydro-8H,12H-imidazo[4″,5″:3′,4′]benzo[1′,2″:8,9][1,5]oxazonino[7,6,5-hi]indole-2-carbonyl)phenyl)-4-(((1r,4r)-4-methoxycyclohexyl)amino)but-2-enamide]	–	–	IC50 (MIA PaCa-2 cells; Table 3): 27 nM; IC50 [1, 2]: 35 nM
COCc1nc2c3c(c(C(F)(F)F)cc2n1C)-c1cccn2c(C(=O)c4cc(F)c(NC(=O)/C=C/CN[C@H]5CCOC5)c(F)c4)cc(c12)C(=O)N(C)C3 [Example 158, (S,E)-N-(2,6-difluoro-4-(10-(methoxymethyl)-9,13-dimethyl-14-oxo-7-(trifluoromethyl)-9,12,13,14-tetrahydroimidazo[4″,5″:3′,4′]benzo[1′,2′:6,7]azocino[5,4,3-hi]indolizine-2-carbonyl)phenyl)-4-((tetrahydrofuran-3-yl)amino)but-2-enamide]	95.4 nM	77.6 nM	–
Cc1nc2c3c(c(C(F)(F)F)cc2n1C)-c1cccn2c(C(=O)c4cc(F)c(NC(=O)/C=C/CNC5(C)COC5)c(F)c4)cc(c12)CCO3 (single isomer, unassigned) [Example 31-2, (E)-N-(4-(9,10-dimethyl-7-(trifluoromethyl)-13,14-dihydro-9H-imidazo[4″,5″:5′,6′]benzo[1′,2′:2,3]oxocino[4,5,6-hi]indolizine-2-carbonyl)-2,6-difluorophenyl)-4-((3-methyloxetan-3-yl)amino)but-2-enamide]	–	–	IC50 (MIA PaCa-2 cells; Table 3): 9200 nM; IC50 [1, 5]: > 6700 nM
Cc1cnc2c3c(c(C(F)(F)F)cn12)-c1cccn2c(C(=O)c4cc(F)c(NC(=O)/C=C/CN[C@H]5CCOC5)c(F)c4)cc(c12)CCN3C (single isomer, unassigned) [Example 242]	16.7 nM	17.8 nM	–
COCCn1cnc2c3c(c(OC)cc21)-c1cccn2c(C(=O)c4cc(F)c(NC(=O)/C=C/CN[C@H]5CCOC5)c(F)c4)cc(c12)CCN3C (single isomer, unassigned) [Example 203]	11 nM	20.4 nM	–
Cc1cc2c(nc(C)n2C)c2c1-c1cccc3c(C(=O)c4cc(F)c(NC(=O)/C=C/CNC5CC6(COC6)C5)c(F)c4)cn(c13)CCN2C [Example 84, (E)-4-((2-oxaspiro[3.3]-heptan-6-yl)amino)-N-(2,6-difluoro-4-(6,8,9,11-tetramethyl-8,11,12,13-tetrahydroimidazo[4″,5″: 5′,6′]benzo[1′,2′:5,6]-[1,4]diazocino[7,8,1-hi]-indole-2-carbonyl)phenyl) but-2-enamide]	49.6 nM	–	IC50 [1, 6]: 39.9 nM
CO[C@H]1CC[C@H](NC/C=C/C(=O)Nc2c(F)cc(C(=O)c3cn4c5c(cccc35)-c3c(C(F)(F)F)cc5c(nc(C)n5C)c3OCC4)cc2F)CC1 (single isomer, unassigned) [Example 12-2, (E)-N-(4-(8,9-dimethyl-6-(trifluoromethyl)-12,13-dihydro-8H-imidazo[4″,5″:3′,4′]benzol[1′,2′:7,8][1,4]oxazocino[6,5,4-hi]indole-2-carbonyl)-2,6-difluorophenyl)-4-(((1r,4r)-4-methoxycyclohexyl)amino)but-2-enamide]	–	–	IC50 (MIA PaCa-2 cells; Table 3): 1600 nM; IC50 [1, 2]: > 6700 nM
Cc1nc2c3c(c(C(F)(F)F)cc2n1C)-c1cccn2c(C(=O)c4cc(F)c(NC(=O)/C=C/CNC5(C(=O)O)CCCCC5)c(F)c4)cc(c12)CCO3 [Example 40]	–	–	IC50 (MIA PaCa-2 cells; Homo sapiens, MIA PaCa-2, 72 h, Table 3): 1600 nM; IC50 [1, 5]: 4700 nM
CO[C@H]1CC[C@H](NC/C=C/C(=O)Nc2c(F)cc(C(=O)c3cn4c5c(cccc35)-c3c(C(F)(F)F)cc5c(nc(C)n5C)c3N(C)CC4)cc2F)CC1 (single isomer, unassigned) [Example 55, (E)-N-(2,6-difluoro-4-(8,9,11-trimethyl-6-(tri-fluoromethyl)-8,11,12,13-tetrahydroimidazo[4″,5″: 5′,6′]benzo[1′,2′:5,6][1,4]-diazocino[7,8,1-hi]indole-2-carbonyl)phenyl)-4-(((1r,4r)-4-methoxycyclo-hexyl)amino)but-2-en-amide]	3.36 nM	–	IC50 [1, 6]: 11.7 nM
Cc1nc2c3c(c(C(F)(F)F)cc2n1C)-c1cccc2c(C(=O)c4cc(F)c(NC(=O)/C=C/CNC(C)(C)CF)c(F)c4)cn(c12)CCN3C [Example 82, (E)-N-(2,6-difluoro-4-(8,9,11-trimethyl-6-(trifluoromethyl)-8,11,12,13-tetrahydro-imidazo[4″,5″:5′,6′]benzo-[1′,2′:5,6][1,4]diazocino-[7,8,1-hi]indole-2-carbon-yl)phenyl)-4-((1-fluoro-2-methylpropan-2-yl)-amino)but-2-enamide]	29.9 nM	–	IC50 [1, 6]: 24.9 nM
COCCNC/C=C/C(=O)Nc1c(F)cc(C(=O)c2cc3c4c(cccn24)-c2c(C(F)(F)F)cc4c(ncn4C)c2N(C)CC3)cc1F [Example 126, (E)-N-(4-(9,12-dimethyl-7-(trifluoromethyl)-9,12,13,14-tetrahydro-imidazo[4″,5″:5′,6′]benzo-[1′,2′:2,3]azocino[4,5,6-hi]indolizine-2-carbonyl)-2,6-difluorophenyl)-4-((2-methoxyethyl)amino)but-2-enamide]	14.3 nM	18 nM	–
Cc1nc2c3c(c(C(F)(F)F)cc2n1C)-c1cccn2c(C(=O)c4cc(F)c(NC(=O)/C=C/CNC5COC5)c(F)c4)cc(c12)CCO3 [Example 51, (E)-N-(4-(9,10-dimethyl-7-(trifluoromethyl)-13,14-dihydro-9H-imidazo-[4″,5″:5′,6′]benzo[1′,2′: 2,3]oxocino[4,5,6-hi]-indolizine-2-carbonyl)-2,6-difluorophenyl)-4-(oxetan-3-ylamino)but-2-enamide]	15.9 nM	45.4 nM	–
Cc1c2cc(C(F)(F)F)c3c(c2nn1C)N(C)CCc1cc(C(=O)c2cc(F)c(NC(=O)/C=C/CNC4(C)CC4)c(F)c2)n2cccc-3c12 (single isomer, unassigned) [Example 155, (E)-N-(2,6-difluoro-4-(9,10,12-trimethyl-7-(trifluoromethyl)-10,12,13,14-tetrahydro-indolizino[8′,1′:4,5,6]-azocino[3,2-g]indazole-2-carbonyl)phenyl)-4-((1-methylcyclopropyl)-amino)but-2-enamide]	13.5 nM	8.95 nM	–
Cc1nc2c3c(c(C(F)(F)F)cc2n1C)-c1cccn2c(C(=O)c4ccc(NC(=O)/C=C/CNC5(C)COC5)cn4)cc(c12)CCO3 [Example 60, (E)-N-(6-(9,10-dimethyl-7-(trifluoromethyl)-13,14-dihydro-9H-imidazo-[4″,5″:5′,6′]benzo[1′,2′: 2,3]oxocino[4,5,6-hi]-indolizine-2-carbonyl)-pyridin-3-yl)-4-((3-meth-yloxetan-3-yl)amino)but-2-enamide]	32.1 nM	73.2 nM	–
Cn1cnc2c3c(c(C(F)(F)F)cc21)-c1cccn2c(C(=O)c4cc(F)c(NC(=O)/C=C/CN5CC6CCC5CO6)c(F)c4)cc(c12)CCO3 (stereo not drawn) [Example 220, (E)-4-(2-oxa-5-aza-bicyclo[2.2.2]octan-5-yl)-N-(2,6-difluoro-4-(9-methyl-7-(trifluorometh-yl)-13,14-dihydro-9H-imidazo[4″,5″:5′,6′]benzo-[1′,2′:2,3]oxocino[4,5,6-hi]indolizine-2-carbonyl)-phenyl)but-2-enamide]	6.52 nM	24.4 nM	–
